The results in this text go back to patent publication US20260102397A1, “PHARMACEUTICAL COMPOSITION FOR TREATING LEUKEMIA COMPRISING FLT3 INHIBITOR” (HANMI PHARM. CO., LTD., priority 2020, published 2026).

One assay deals with T1, SYK (Homo sapiens, UniProt P43405).
T1 construct: purchased Thermo Fisher Scientific
In words: Kinase inhibition test, Z'-LYTE. In kind it is biochemical. The conditions noted are these: read-out: 50% activity inhibition value (IC50), SYK. The protocol: Activity measurement was conducted using LanthaScreen test method (wild type and mutation type FLT3) or Z′-LYTE test method (SYK) developed by Thermo Fisher Scientific. LanthaScreen test method is a method of measuring protein activity by measuring fluorescence resonance energy transfer (FRET) signal under the existence of europium-conjugated antibody on the basis of the binding of Alexa Fluor 647-labelled, ATP-competitive kinase inhibitor (kinase tracer-236) to kinase. Z′-LYTE test method is a method using an enzyme which can cut dephosphorylated substrate, and this method measures the activity of kinase protein by measuring two fluorescent FRET signals attached to each end of peptide substrate. The two experiments were all conducted in 384 well plates under the conditions of 50 mM HEPES pH 7.5, 0.01% BRIJ-35, 10 mM MgCl2, 1 mM EGTA, and 1% DMSO.

The test system of assay [1] is MOLM-14 FLT3-ITD/F691L cell strain. The experiment in a line: Mouse model hypodermically implanted with MOLM-14 FLT3-ITD/F691L cell strain. It is filed as in vivo. To be noted: nude mice, MOLM-14 FLT3-ITD/F691L subcutaneous, 30 mg/kg/day oral once daily. The protocol: MOLM-14 FLT3-ITD/F691L cell strain was subcutaneously injected into a nude mouse at 3×10^^6 cell/0.15 mL/mouse and the mouse was left to grow.
The control group was administered for 13 days and the drug administration groups were administered for 18 days with each pertinent drug.
The tumor volume (mm^3) of the surviving mice in each group was plotted on the y-axis, whereas the number of days of medication was plotted on the x-axis. In order to evaluate the effects of the administration of drugs, the results of complete response (CR) in which tumor had completely disappeared were checked. […] (*p<0.05, **p<0.01, ***p<0.001, and ****p<0.0001 Sidk's test was conducted after two-way analysis of variance)

pIC50: −log10 of the molar value.

As to `Cc1ccc2c(-c3nc(Nc4cc(CN5C[C@@H](C)N[C@@H](C)C5)cc(C5CC5)c4)ncc3Cl)c[nH]c2c1` [Compound A, 5-chloro-N-(3-cyclopropyl-5-(((3R,5S)-3,5-dimethylpiperazine-1-yl)methyl)phenyl)-4-(6-methyl-1H-indol-3-yl)pyrimidine-2-amin], the pIC50 on SYK is 8.54. Also, the “complete response (CR, tumor completely disappeared), day of administration” value in assay [1] is 12 days. In addition, the “volume of tumor compared with Gilteritinib administration group” value in assay [1] (18 days, FIG. 1) was “reduced more significantly”.

By pIC50 is commonly meant the IC50 on a negative log10 scale, so that one unit is a factor of ten.
